Experimental data: patent US20140031278A1, “Novel Glucagon Analogues” (NOVO NORDISK A/S, priority 2011, published 2014)
*1 amine or outer side, *2 acyl side, *3 side chain or, on linkers, in order; H or OH if unused. Where a SMILES comes first, the peptide text is derived from it. Side-chain parts run from the residue outwards. γGlu = O=C(O)[C@H](CCC(=O)[*:2])N[*:1]

Each compound was assayed against T1, glucagon receptor (Homo sapiens, UniProt P47871) (assay: Assay (I) Glucagon activity (cAMP biosensor, FLIPR)). Settings: HEK-293 cells with cloned glucagon receptor and cAMP biosensor; end point after 6 minutes.
T1 construct: expressed in transfected cells
T1 sequence (P47871 26-477): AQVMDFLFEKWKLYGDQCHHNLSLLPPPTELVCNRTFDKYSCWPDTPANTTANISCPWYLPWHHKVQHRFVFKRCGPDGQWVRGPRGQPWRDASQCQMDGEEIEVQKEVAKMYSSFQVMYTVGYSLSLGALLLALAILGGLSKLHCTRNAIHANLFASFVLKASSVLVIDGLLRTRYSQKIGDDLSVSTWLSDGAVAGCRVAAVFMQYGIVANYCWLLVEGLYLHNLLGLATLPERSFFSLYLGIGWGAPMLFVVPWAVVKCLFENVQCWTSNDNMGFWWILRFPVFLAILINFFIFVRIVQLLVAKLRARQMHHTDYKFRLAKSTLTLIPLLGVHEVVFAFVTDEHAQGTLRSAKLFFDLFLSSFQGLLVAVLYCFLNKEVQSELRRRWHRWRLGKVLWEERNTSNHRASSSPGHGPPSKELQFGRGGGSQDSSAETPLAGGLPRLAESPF
Format: cell-based
Procedure, shortened: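 HEK-293 cells expressing glucagon receptor with membrane cAMP biosensor (ACTOne), calcium-dye loaded with probenecid and a PDE inhibitor.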
An EC50 of 13 pM was found for CC(=O)N[C@@H](CCC(=O)N[C@@H](CCC(=O)N[C@@H](CCC(=O)N[C@@H](CCC(=O)NCCCC[C@H](NC(=O)[C@@H](NC(=O)[C@H](Cc1ccccc1)NC(=O)[C@H](CC(=O)O)NC(=O)[C@H](CCC(N)=O)NC(=O)[C@H](C)NC(=O)[C@H](CCCNC(=N)N)NC(=O)[C@H](CCCNC(=N)N)NC(=O)[C@@H](NC(=O)[C@H](CCC(=O)O)NC(=O)[C@H](CC(C)C)NC(=O)[C@H](Cc1ccc(O)cc1)NC(=O)[C@H](CCCCN)NC(=O)[C@H](CO)NC(=O)[C@H](Cc1ccc(O)cc1)NC(=O)[C@H](CC(=O)O)NC(=O)[C@H](CO)NC(=O)[C@@H](NC(=O)[C@H](Cc1ccccc1)NC(=O)[C@@H](NC(=O)CNC(=O)[C@H](Cc1c[nH]cn1)NC(=O)[C@H](CO)NC(=O)[C@@H](N)Cc1c[nH]cn1)[C@@H](C)O)[C@@H](C)O)[C@@H](C)O)C(C)C)C(=O)N[C@@H](Cc1c[nH]c2ccccc12)C(=O)N[C@@H](CC(C)C)C(=O)N[C@@H](CC(C)C)C(=O)N[C@@H](CO)C(=O)N[C@H](C(=O)O)[C@@H](C)O)C(=O)O)C(=O)O)C(=O)O)C(=O)O [Example 31, N^ε24-[(4S)-4-[[(4S)-4-[[(4S)-4-[[(4S)-4-acetamido-4-carboxybutanoyl]amino]-4-carboxybutanoyl]amino]-4-carboxybutanoyl]amino]-4-carboxybutanoyl]-[His3,Glu15,Thr16,Lys24,Leu27,Ser28]-Glucagon] (H-HSHGTFTSDYSKYLETRRAQDFVK([γGlu-γGlu-γGlu-γGlu-Ac])WLLST-OH) in this work. An EC50 of 9 pM was found for CC(=O)N[C@@H](CCC(=O)N[C@@H](CCC(=O)N[C@@H](CCC(=O)N[C@@H](CCC(=O)NCCCC[C@H](NC(=O)[C@@H](NC(=O)[C@H](Cc1ccccc1)NC(=O)[C@H](CC(=O)O)NC(=O)[C@H](CCC(N)=O)NC(=O)[C@H](C)NC(=O)[C@H](CCCNC(=N)N)NC(=O)[C@H](CCCNC(=N)N)NC(=O)[C@@H](NC(=O)[C@H](CC(=O)O)NC(=O)[C@H](CC(C)C)NC(=O)[C@H](Cc1ccc(O)cc1)NC(=O)[C@H](CCCCN)NC(=O)[C@H](CO)NC(=O)[C@H](Cc1ccc(O)cc1)NC(=O)[C@H](CC(=O)O)NC(=O)[C@H](CO)NC(=O)[C@@H](NC(=O)[C@H](Cc1ccccc1)NC(=O)[C@@H](NC(=O)CNC(=O)[C@H](Cc1c[nH]cn1)NC(=O)[C@H](CO)NC(=O)[C@@H](N)Cc1c[nH]cn1)[C@@H](C)O)[C@@H](C)O)[C@@H](C)O)C(C)C)C(=O)N[C@@H](Cc1c[nH]c2ccccc12)C(=O)N[C@@H](CC(C)C)C(=O)N[C@@H](CC(C)C)C(=O)N[C@@H](CO)C(=O)N[C@H](C(=O)O)[C@@H](C)O)C(=O)O)C(=O)O)C(=O)O)C(=O)O [Example 32, N^ε24-[(4S)-4-[[(4S)-4-[[(4S)-4-[[(4S)-4-acetamido-4-carboxybutanoyl]amino]-4-carboxybutanoyl]amino]-4-carboxybutanoyl]amino]-4-carboxybutanoyl]-[His3,Thr16,Lys24,Leu27,Ser28]-Glucagon] (H-HSHGTFTSDYSKYLDTRRAQDFVK([γGlu-γGlu-γGlu-γGlu-Ac])WLLST-OH) in this work. An EC50 of 8 pM was found for CC(C)C[C@H](NC(=O)[C@H](Cc1c[nH]c2ccccc12)NC(=O)[C@H](CCCCNC(=O)CC[C@H](NC(=O)CC[C@H](NC(=O)CC[C@H](NC(=O)CC[C@H](N)C(=O)O)C(=O)O)C(=O)O)C(=O)O)NC(=O)[C@@H](NC(=O)[C@H](Cc1ccccc1)NC(=O)[C@H](CC(=O)O)NC(=O)[C@H](CCC(N)=O)NC(=O)[C@H](C)NC(=O)[C@H](CCCNC(=N)N)NC(=O)[C@H](CCCNC(=N)N)NC(=O)[C@@H](NC(=O)[C@H](CC(=O)O)NC(=O)[C@H](CC(C)C)NC(=O)[C@H](Cc1ccc(O)cc1)NC(=O)[C@H](CCCCN)NC(=O)[C@H](CO)NC(=O)[C@H](Cc1ccc(O)cc1)NC(=O)[C@H](CC(=O)O)NC(=O)[C@H](CO)NC(=O)[C@@H](NC(=O)[C@H](Cc1ccccc1)NC(=O)[C@@H](NC(=O)CNC(=O)[C@H](Cc1c[nH]cn1)NC(=O)[C@H](CO)NC(=O)[C@@H](N)Cc1c[nH]cn1)[C@@H](C)O)[C@@H](C)O)[C@@H](C)O)C(C)C)C(=O)N[C@@H](CC(C)C)C(=O)N[C@@H](CO)C(=O)N[C@H](C(=O)O)[C@@H](C)O [Example 33, N^ε24-[(4S)-4-[[(4S)-4-[[(4S)-4-[[(4S)-4-amino-4-carboxybutanoyl]amino]-4-carboxybutanoyl]amino]-4-carboxybutanoyl]amino]-4-carboxybutanoyl]-[His3,Thr16,Lys24,Leu27,Ser28]-Glucagon] (H-HSHGTFTSDYSKYLDTRRAQDFVK([γGlu-γGlu-γGlu-γGlu])WLLST-OH) in this work. An EC50 of 2.3 pM was found for CC(=O)N[C@@H](CCC(=O)N[C@@H](CCC(=O)N[C@@H](CCC(=O)N[C@@H](CCC(=O)NCCCC[C@H](NC(=O)[C@@H](NC(=O)[C@H](Cc1ccccc1)NC(=O)[C@H](CC(=O)O)NC(=O)[C@H](CCC(N)=O)NC(=O)[C@H](C)NC(=O)[C@H](CCCNC(=N)N)NC(=O)[C@H](CCCNC(=N)N)NC(=O)[C@H](Cc1c[nH]c2ccccc12)NC(=O)[C@H](CC(=O)O)NC(=O)[C@H](CC(C)C)NC(=O)[C@H](Cc1ccc(O)cc1)NC(=O)[C@H](CCCCN)NC(=O)[C@H](CO)NC(=O)[C@H](Cc1ccc(O)cc1)NC(=O)[C@H](CC(=O)O)NC(=O)[C@H](CO)NC(=O)[C@@H](NC(=O)[C@H](Cc1ccccc1)NC(=O)[C@@H](NC(=O)CNC(=O)[C@H](CCC(N)=O)NC(=O)[C@H](CO)NC(=O)[C@@H](N)Cc1c[nH]cn1)[C@@H](C)O)[C@@H](C)O)C(C)C)C(=O)N[C@@H](Cc1c[nH]c2ccccc12)C(=O)N[C@@H](CC(C)C)C(=O)N[C@@H](CC(C)C)C(=O)N[C@@H](CO)C(=O)N[C@H](C(=O)O)[C@@H](C)O)C(=O)O)C(=O)O)C(=O)O)C(=O)O [Example 34] in this work. An EC50 of 2.8 pM was found for CC(=O)N[C@@H](CCC(=O)N[C@@H](CCC(=O)N[C@@H](CCC(=O)N[C@@H](CCC(=O)NCCCC[C@H](NC(=O)[C@@H](NC(=O)[C@H](Cc1ccccc1)NC(=O)[C@H](CC(=O)O)NC(=O)[C@H](CCC(N)=O)NC(=O)[C@H](C)NC(=O)[C@H](CCCNC(=N)N)NC(=O)[C@H](CCCNC(=N)N)NC(=O)[C@H](Cc1ccccc1)NC(=O)[C@H](CC(=O)O)NC(=O)[C@H](CC(C)C)NC(=O)[C@H](Cc1ccc(O)cc1)NC(=O)[C@H](CCCCN)NC(=O)[C@H](CO)NC(=O)[C@H](Cc1ccc(O)cc1)NC(=O)[C@H](CC(=O)O)NC(=O)[C@H](CO)NC(=O)[C@@H](NC(=O)[C@H](Cc1ccccc1)NC(=O)[C@@H](NC(=O)CNC(=O)[C@H](CCC(N)=O)NC(=O)[C@H](CO)NC(=O)[C@@H](N)Cc1c[nH]cn1)[C@@H](C)O)[C@@H](C)O)C(C)C)C(=O)N[C@@H](Cc1c[nH]c2ccccc12)C(=O)N[C@@H](CC(C)C)C(=O)N[C@@H](CC(C)C)C(=O)N[C@@H](CO)C(=O)N[C@H](C(=O)O)[C@@H](C)O)C(=O)O)C(=O)O)C(=O)O)C(=O)O [Example 35] in this work. An EC50 of 2.5 pM was found for CC[C@H](C)[C@H](NC(=O)[C@H](CC(=O)O)NC(=O)[C@H](CC(C)C)NC(=O)[C@H](Cc1ccc(O)cc1)NC(=O)[C@H](CCCCN)NC(=O)[C@H](CO)NC(=O)[C@H](Cc1ccc(O)cc1)NC(=O)[C@H](CC(=O)O)NC(=O)[C@H](CO)NC(=O)[C@@H](NC(=O)[C@H](Cc1ccccc1)NC(=O)[C@@H](NC(=O)CNC(=O)[C@H](CCC(N)=O)NC(=O)[C@H](CO)NC(=O)[C@@H](N)Cc1c[nH]cn1)[C@@H](C)O)[C@@H](C)O)C(=O)N[C@@H](CCCNC(=N)N)C(=O)N[C@@H](CCCNC(=N)N)C(=O)N[C@@H](C)C(=O)N[C@@H](CCC(N)=O)C(=O)N[C@@H](CC(=O)O)C(=O)N[C@@H](Cc1ccccc1)C(=O)N[C@H](C(=O)N[C@@H](CCCCNC(=O)CC[C@H](NC(=O)CC[C@H](NC(=O)CC[C@H](NC(=O)CC[C@H](NC(C)=O)C(=O)O)C(=O)O)C(=O)O)C(=O)O)C(=O)N[C@@H](Cc1c[nH]c2ccccc12)C(=O)N[C@@H](CC(C)C)C(=O)N[C@@H](CC(C)C)C(=O)N[C@@H](CO)C(=O)N[C@H](C(=O)O)[C@@H](C)O)C(C)C [Example 36, N^ε24-[(4S)-4-[[(4S)-4-[[(4S)-4-[[(4S)-4-acetamido-4-carboxybutanoyl]amino]-4-carboxybutanoyl]amino]-4-carbox[…]ybutanoyl]amino]-4-carboxybutanoyl]-[Ile16,Lys24,Leu27,Ser28]-Glucagon] in this work. An EC50 of 3 pM was found for CC(=O)N[C@@H](CCC(=O)N[C@@H](CCC(=O)N[C@@H](CCC(=O)N[C@@H](CCC(=O)NCCCC[C@H](NC(=O)[C@@H](NC(=O)[C@H](Cc1ccccc1)NC(=O)[C@H](CC(=O)O)NC(=O)[C@H](CCC(N)=O)NC(=O)[C@H](C)NC(=O)[C@H](CCCNC(=N)N)NC(=O)[C@H](CCCNC(=N)N)NC(=O)[C@H](Cc1ccc(O)cc1)NC(=O)[C@H](CC(=O)O)NC(=O)[C@H](CC(C)C)NC(=O)[C@H](Cc1ccc(O)cc1)NC(=O)[C@H](CCCCN)NC(=O)[C@H](CO)NC(=O)[C@H](Cc1ccc(O)cc1)NC(=O)[C@H](CC(=O)O)NC(=O)[C@H](CO)NC(=O)[C@@H](NC(=O)[C@H](Cc1ccccc1)NC(=O)[C@@H](NC(=O)CNC(=O)[C@H](CCC(N)=O)NC(=O)[C@H](CO)NC(=O)[C@@H](N)Cc1c[nH]cn1)[C@@H](C)O)[C@@H](C)O)C(C)C)C(=O)N[C@@H](Cc1c[nH]c2ccccc12)C(=O)N[C@@H](CC(C)C)C(=O)N[C@@H](CC(C)C)C(=O)N[C@@H](CO)C(=O)N[C@H](C(=O)O)[C@@H](C)O)C(=O)O)C(=O)O)C(=O)O)C(=O)O [Example 37, N^ε24-[(4S)-4-[[(4S)-4-[[(4S)-4-[[(4S)-4-acetamido-4-carboxybutanoyl]amino]-4-carboxybutanoyl]amino]-4-carbox[…]ybutanoyl]amino]-4-carboxybutanoyl]-[Tyr16,Lys24,Leu27,Ser28]-Glucagon] in this work.
